Data published in ChEMBL document CHEMBL1122862, “Synthesis and antibacterial activity of 2,2'-dithiobis(benzamide) derivatives against Mycobacterium species” (1985).
Values after ≈ are worked out from the molar mass of the structure shown.

Tests used:
Type in all cases: functional
[1] = test system: Mycobacterium tuberculosis; test: Antibacterial activity against Mycobacterium tuberculosis H37Rv.
[2] = test system: Mycobacterium kansasii; test: Antibacterial activity against Mycobacterium kansasii
[3] = test system: Mycobacterium intracellulare; test: Antibacterial activity against Mycobacterium intracellular.

SMILES | MIC [1] [µg/mL] | MIC [2] [µg/mL] | MIC [3] [µg/mL]
O=C(Nc1ccccc1Cl)c1ccccc1SSc1ccccc1C(=O)Nc1ccccc1Cl | 25 (≈ 47.6 µM) | 100 (≈ 190 µM) | > 100
CCCCN(CCCC)C(=O)c1ccccc1SSc1ccccc1C(=O)N(CCCC)CCCC | 6.25 (≈ 11.8 µM) | 25 (≈ 47.3 µM) | 25 (≈ 47.3 µM)
O=C(c1ccccc1SSc1ccccc1C(=O)N(c1ccccc1)c1ccccc1)N(c1ccccc1)c1ccccc1 | > 100 | > 100 | > 100
CCOc1ccc2nc(NC(=O)c3ccccc3SSc3ccccc3C(=O)Nc3nc4ccc(OCC)cc4s3)sc2c1 | > 100 | > 100 | > 100
CCC(CO)NC(=O)c1ccccc1SSc1ccccc1C(=O)NC(CC)CO (configuration not stated) | 12.5 (≈ 27.9 µM) | 25 (≈ 55.7 µM) | 25 (≈ 55.7 µM)
O=C(Nc1cccc2cccnc12)c1ccccc1SSc1ccccc1C(=O)Nc1cccc2cccnc12 | 25 (≈ 44.7 µM) | 100 (≈ 179 µM) | > 100
CCCCCCCCCCCC(=O)OCCNC(=O)c1ccccc1SSc1ccccc1C(=O)NCCOC(=O)CCCCCCCCCCC | 6.25 (≈ 8.26 µM) | 25 (≈ 33 µM) | 100 (≈ 132 µM)
CC(C)(CO)NC(=O)c1ccccc1SSc1ccccc1C(=O)NC(C)(C)CO | 12.5 (≈ 27.9 µM) | 12.5 (≈ 27.9 µM) | 12.5 (≈ 27.9 µM)
O=C(NCO)c1ccccc1SSc1ccccc1C(=O)NCO | 6.25 (≈ 17.1 µM) | 25 (≈ 68.6 µM) | 25 (≈ 68.6 µM)
CCCCCCCCCCCCCCCCCCCC(=O)OCCCNC(=O)c1ccccc1SSc1ccccc1C(=O)NCCCOC(=O)CCCCCCCCCCCCCCCCCCC | > 100 | > 100 | > 100
CCOCCCNC(=O)c1ccccc1SSc1ccccc1C(=O)NCCCOCC | 1.56 (≈ 3.27 µM) | 12.5 (≈ 26.2 µM) | 12.5 (≈ 26.2 µM)
CC(O)CNC(=O)c1ccccc1SSc1ccccc1C(=O)NCC(C)O (configuration not stated) | 1.56 (≈ 3.71 µM) | 25 (≈ 59.4 µM) | 25 (≈ 59.4 µM)
O=C(Nc1ccc(Cl)c2ccccc12)c1ccccc1SSc1ccccc1C(=O)Nc1ccc(Cl)c2ccccc12 | 12.5 (≈ 20 µM) | 50 (≈ 79.9 µM) | > 100
CCOC(=O)c1ccc(NC(=O)c2ccccc2SSc2ccccc2C(=O)Nc2ccc(C(=O)OCC)cc2)cc1 | 3.13 (≈ 5.21 µM) | 25 (≈ 41.6 µM) | 25 (≈ 41.6 µM)
O=C(Nc1ccc(S(=O)(=O)Nc2nc3ccccc3s2)cc1)c1ccccc1SSc1ccccc1C(=O)Nc1ccc(S(=O)(=O)Nc2nc3ccccc3s2)cc1 | 100 (≈ 113 µM) | 50 (≈ 56.7 µM) | 100 (≈ 113 µM)
O=C(Nc1cc2ccccc2cc1O)c1ccccc1SSc1ccccc1C(=O)Nc1cc2ccccc2cc1O | 12.5 (≈ 21.2 µM) | 25 (≈ 42.5 µM) | 50 (≈ 84.9 µM)
CCC(O)CNC(=O)c1ccccc1SSc1ccccc1C(=O)NCC(O)CC (configuration not stated) | 12.5 (≈ 27.9 µM) | 12.5 (≈ 27.9 µM) | 12.5 (≈ 27.9 µM)
O=C(c1ccccc1SSc1ccccc1C(=O)N1CCN(C/C=C/c2ccccc2)CC1)N1CCN(C/C=C/c2ccccc2)CC1 | 100 (≈ 148 µM) | > 100 | > 100
Cl.Cl.O=C(NCC1CCNCC1)c1ccccc1SSc1ccccc1C(=O)NCC1CCNCC1 | 100 | > 100 | > 100
